Measurements reported in article PMC8010149, “A Therapeutic Strategy to Combat HIV-1 Latently Infected Cells With a Combination of Latency-Reversing Agents Containing DAG-Lactone PKC Activators” (Frontiers in Microbiology, 2021).

Assays:
[1] = Cytotoxicity of LRAs in A3.01 cells; assay type: cell-based; conditions: human, day 7
Experimental: (§1) To determine the cytotoxicity of LRAs, A3.01, and U937 cells (5 × 10^5 cells/ml), which are the parental cells for ACH-2 and U1 cells, respectively, were cultured in the presence or absence of LRAs. After 7 days, cell viability was examined using the Cell Counting Kit-8 assay (Dojindo, Kumamoto, Japan) according to the manufacturer’s instructions. The numbers of living cells after drug treatment were measured and compared to those in untreated cells and are presented as a percentage relative to the control.

[2] = Cytotoxicity of LRAs in U937 cells; assay type: cell-based; conditions: human, day 7
Experimental: as §1

[3] = test system: HIV-1 latently infected ACH-2 cells; assay: HIV-1 latency reversal, p24 antigen in supernatant, ACH-2 cells; assay type: cell-based; conditions: Human immunodeficiency virus 1, ACH-2, 48 h
Experimental: (§2) The reactivation of HIV-1 from latently infected cells was determined by intracellular p24 protein expression and quantification of p24 antigen in the supernatant (ACH-2 and U1 cells), or by changes in intracellular green fluorescent protein (GFP) expression (J-Lat 10.6 cells). J-Lat ([Jordan et al., 2003]), ACH-2, or U1 cells (5 × 10^5 cells/ml) were seeded in 96-well plates and incubated with different drug concentrations for 24 h to collect the cells. The supernatant was collected after 48 h. The increase in supernatant p24 antigen levels was measured using a Lumipulse G1200 (FUJIREBIO, Tokyo, Japan). J-Lat cells (5 × 10^5 cells/ml) were placed in 48-well plates and incubated with different drug concentrations for 24 h. Intracellular p24 protein expression and GFP-positive cells were analyzed by flow cytometry.

[4] = test system: HIV-1 latently infected U1 cells; assay: HIV-1 latency reversal, p24 antigen in supernatant, U1 cells; assay type: cell-based; conditions: Human immunodeficiency virus 1, 48 h
Experimental: as §2

[5] = test system: HIV-1 latently infected ACH-2 cells; assay: Intracellular HIV-1 p24 by flow cytometry in ACH-2 cells; assay type: cell-based
Experimental: as §2
(§3) The amount of intracellular HIV-1 p24 and the active form of caspase-3 were determined by flow cytometry, as previously described ([Matsuda et al., 2015], [2019]). In brief, ACH-2 and U1 cells (2.5 × 10^5 cells/ml) were fixed with 1% paraformaldehyde/PBS for 20 min and permeabilized with Flow Cytometry Perm Buffer (TONBO Biosciences, San Diego, CA, United States). After 5 min of incubation at room temperature, the cells were stained with FITC anti-HIV-1 p24 (24-4) monoclonal antibody (mAb; Santa Cruz Biotechnology, Dallas, TX, United States) or Alexa Fluor 647-conjugated anti-active caspase-3 (C92-605) mAb (BD Pharmingen, San Diego, CA, United States) for 30 min on ice. For T cell activation and exhaustion marker staining, PBMCs from healthy donors separated by the above density gradient centrifugation method were incubated with fixable viability stain Ghost Dye 780 (TONBO Biosciences) for 30 min on ice. The cells were then stained with Brilliant Violet 510 anti-human CD3 (UCHT1) mAb (BioLegend), FITC anti-human CD4 (RPA-T4) mAb (TONBO Biosciences), PE-Cy7 anti-human CD8a (RPA-T8) mAb (TONBO Biosciences), PerCP-Cy5.5 anti-human CD38 (HB-7) mAb (BioLegend), PE anti-human CD69 (FN50) mAb (BioLegend), or Alexa Fluor 647 anti-human CD279/PD-1 (EH12.1) mAb (BD Biosciences, San Jose, CA, United States) for 30 min on ice. Next, the cells were analyzed using BD FACSVerse (BD Biosciences). In the analysis, unstained cells were used as a negative control to set the gating for each experiment. The collected data were analyzed using FlowJo software (Tree Star, San Carlos, CA, United States).

[6] = test system: HIV-1 latently infected U1 cells; assay: Intracellular HIV-1 p24 by flow cytometry in U1 cells; assay type: cell-based
Experimental: as §2, §3

J-Lat 10.6 cells = assay type: cell-based, HIV-1; conditions: J-Lat 10.6 cells, 24 h
Experimental: The reactivation of HIV-1 from latently infected cells was determined by intracellular p24 protein expression and quantification of p24 antigen in the supernatant (ACH-2 and U1 cells), or by changes in intracellular green fluorescent protein (GFP) expression (J-Lat 10.6 cells). […] The supernatant was collected after 48 h. The increase in supernatant p24 antigen levels was measured using a Lumipulse G1200 (FUJIREBIO, Tokyo, Japan). […] Intracellular p24 protein expression and GFP-positive cells were analyzed by flow cytometry.
Differences between groups were analyzed for statistical significance using unpaired t-tests. Statistical significance was set at p < 0.05. Statistical analyses were performed using GraphPad Prism version 8 (GraphPad Software, La Jolla, CA, United States). CompuSyn software, based on the quantitative analysis of dose-effect relationships between multiple drugs by Chou and Talalay, was utilized to determine the synergism or antagonism of drug combinations ([Chou and Talalay, 1984]). To confirm synergy, this software calculates combination index (CI) values, which further assist in determining the nature of the combination compared to single drug effects. A CI value <1 indicates synergistic effects.

[7] = test system: HIV-1 in CD4+ T cells from HIV-1-infected individuals; assay: Ex vivo reactivation, intracellular HIV-1 mRNA in primary CD4+ T cells from HIV-1-infected individuals; assay type: cell-based; conditions: 1 μM JQ1, 24 h, seven individuals
Experimental: Primary cells were isolated from seven HIV-1^+ individuals, and ex vivo reactivation experiments were conducted as previously described ([Matsuda et al., 2019]). In brief, peripheral blood samples were collected from HIV-1-infected participants receiving cART for at least 5 years (Table 1). All subjects maintained a low viral load (<20 copies/ml, except for occasional “blips”) during therapy. CD4^+ T cell counts in peripheral blood samples ranged from 477 to 992 cells/mm^3 (average: 631 cells/mm^3), and plasma viral loads were <20 copies/ml (except for one participant whose viral load was 22 copies/ml) as measured by quantitative PCR (qPCR; COBAS AmpliPrep/COBAS TaqMan HIV-1 Test version 2.0; Roche Diagnostics, Basel, Switzerland) at the time of study enrollment. The Ethics Committee at the National Center for Global Health and Medicine approved this study (NCGM-G-002259-00), and each patient provided written informed consent. […] The number of HIV-1 RNA copies was calculated using a standard curve obtained from serially diluted HIV-1pNL4-3 plasmid, and normalized values [HIV-1 RNA copies/input RNA (ng)] for each drug were compared to those without drug treatment. The relative increase in HIV-1 RNA levels in the presence of each drug or combination was then determined.

BALB/c mice = assay: In vivo acute toxicity (24 h) in BALB/c mice
From the text: BALB/c mice were purchased from Charles River Laboratories Japan, Inc. (Yokohama, Japan). Female mice at 5 weeks of age were used for the experiments. The mice were housed and monitored in our animal research facility according to the institutional guidelines. All experimental procedures and protocols were approved by the Institutional Animal Care and Use Committee of Kumamoto University.

[8] = test system: CD8+PD1+CD38+ primary T cells; assay: Immune exhaustion markers, CD8+PD1+CD38+ primary T cells; assay type: cell-based, human; conditions: PBMCs from healthy donors, 24 h
Experimental: as §3

U1 cells = assay: Active caspase-3 by flow cytometry in U1 cells; assay type: cell-based; conditions: 10 µM, 24 h
Experimental: as §3, with “The cells were then stained with Brilliant Violet 510 anti-human CD3 (UCHT1) mAb (BioLegend), FITC anti-human CD4 (RPA-T4) mAb (TONBO Biosciences), PE-Cy7 anti-human CD8a (RPA-T8) mAb (TONBO Biosciences), PerCP-Cy5.5 anti-human CD38 (HB-7) mAb (BioLegend), PE anti-human CD69 (FN50) mAb (BioLegend), or Alexa Fluor 647 anti-human CD279/PD-1 (EH12.1) mAb (BD Biosciences, San Jose, CA, United States) for 30 min on ice.” left out, “In the analysis, unstained cells were used as a negative control to set the gating for each experiment.” left out

U937 cells = assay: Active caspase-3 by flow cytometry in U937 cells; assay type: cell-based; conditions: 10 μM, 24 h
[9] = PMA control, concentration not given

SMILES | CC50 at 7 days [1] | CC50 at 7 days [2] | EC50 [3] | EC50 [4] | intracellular p24-positive live cells (flow cytometry quadrant) ([5]; 0.1 µM, 24 h) | intracellular p24-positive live cells (flow cytometry quadrant) ([5]; 1 µM, 24 h) | intracellular p24-positive live cells (flow cytometry quadrant) ([5]; 10 µM, 24 h) | intracellular p24-positive live cells (flow cytometry quadrant) ([6]; 0.1 µM, 24 h) | intracellular p24-positive live cells (flow cytometry quadrant) ([6]; 1 µM, 24 h) | intracellular p24-positive live cells (flow cytometry quadrant) ([6]; 10 µM, 24 h) | increase in CD8+ PD1+ CD38+ T cells [8] | also measured
CCCCCCCCCC(=O)OCC1(CO)CC(=C(C)C)C(=O)O1 (centres unmarked) [HTA14-472] | > 100 µM | > 100 µM | > 10 µM | > 10 µM | 0.714 | 0.526 | 17.4 | 0.28 | 0.262 | 2.98 |  | 
Cc1sc2c(c1C)C(c1ccc(Cl)cc1)=N[C@@H](CC(=O)OC(C)(C)C)c1nnc(C)n1-2 [JQ1, reference compound] |  |  |  |  |  |  |  |  |  |  |  | number of GFP+ cells (J-Lat 10.6 cells; 100–400 nM): 12.6%; HIV-1 mRNA compared to no drug control [7]: 2.25 fold
C/C=C(/C)C(=O)O[C@H]1C(C)=C[C@]23C(=O)[C@@H](C=C(CO)[C@@H](O)[C@]12O)[C@H]1[C@@H](C[C@H]3C)C1(C)C [PEP005] |  |  |  |  |  |  |  |  |  |  | significant increase | concentration at which acute toxicity started (BALB/c mice; intraperitoneal): 300 µg/kg; survival (BALB/c mice; intraperitoneal, 1,000 μg/kg): all tested mice died
CCCCCCCCCCCCCC(=O)O[C@@H]1[C@@H](C)[C@@]2(O)[C@@H](C=C(CO)C[C@]3(O)C(=O)C(C)=C[C@@H]23)[C@@H]2C(C)(C)[C@]12OC(C)=O [PMA, Phorbol 12-myristate 13-acetate, reference compound] |  |  |  |  |  |  |  |  |  |  |  | intracellular p24-positive live cells (flow cytometry quadrant) [5, 9]: 77.8; intracellular p24-positive live cells (flow cytometry quadrant) [6, 9]: 42.2
CC(=O)O[C@@]12C[C@@H](C)[C@@]3(O)[C@@H](C=C(CO)C[C@]4(O)C(=O)C(C)=C[C@@H]34)[C@@H]1C2(C)C [Prostratin, reference compound] | > 100 µM | > 100 µM | 0.33 µM | 0.32 µM | 4.99 | 68.7 | 76.7 | 0.333 | 33.5 | 40.7 | significant increase | LRA activity in the presence of 10% mouse serum versus 10% FBS (J-Lat 10.6 cells; GFP-positive cells): did not change; caspase-3 activation (U1 cells): 19.1%; caspase-3 activation (U937 cells): 18.8%
CCCCCCCCCC(=O)OCC1(CO)C/C(=C\CC(C(C)C)C(C)C)C(=O)O1 (centres unmarked) [YOK058E] | > 100 µM | > 100 µM | > 10 µM | 8.24 µM | 0.629 | 3.24 | 67.2 | 0.208 | 0.197 | 13.3 |  | 
